Patent publication US8946477B2, “Solid forms of an N-(phenylmethyl) propanamide derivative and processes of preparation” (Medichem, S.A., priority 2009, dated 2015)

Assay: Stability studies: storage under standard conditions, then XRD analysis
Type: physicochemical
Details: for XRD after storage (polymorphic form): stored at room temperature, air atmosphere

With COC[C@@H](NC(C)=O)C(=O)NCc1ccccc1 [Example 41, (2R)-2-(acetylamino)-3-methoxy-N-(phenylmethyl)propanamide] the “XRD after storage (polymorphic form)” value (normal pressure, storing time 295 days) was “Form III”.

For COC[C@@H](NC(C)=O)C(=O)NCc1ccccc1 [Example 42, (2R)-2-(acetylamino)-3-methoxy-N-(phenylmethyl)propanamide], the “XRD after storage (polymorphic form)” value (normal pressure, storing time 290 days) was “Form III”.

With COC[C@@H](NC(C)=O)C(=O)NCc1ccccc1 [amorphous lacosamide, (2R)-2-(acetylamino)-3-methoxy-N-(phenylmethyl)propanamide] the stability on storage (ambient conditions and air atmosphere for at least 250 days, more typically at least 300 days) was “substantially stable” and the “XRD after storage (FIG. 13 vs FIG. 12)” value (room temperature, normal pressure, air atmosphere for 304 days (Example 63)) was “retention of amorphous Form”.

For COC[C@@H](NC(C)=O)C(=O)NCc1ccccc1 [lacosamide Form III, (2R)-2-(acetylamino)-3-methoxy-N-(phenylmethyl)propanamide], the “polymorphic stability on storage” value (ambient conditions and air atmosphere for at least 250 days, more typically at least 290 days) was “substantially no polymorphic interconversion is observed”.
